The text below walks through data of ChEMBL document CHEMBL4334495, “Design and Biological Evaluation of m-Xylene Thioether-Stapled Short Helical Peptides Targeting the HIV-1 gp41 Hexameric Coiled-Coil Fusion Complex” (J Med Chem, 2019).

The test system of data set [1] is Human immunodeficiency virus 1. Nature of the data set: Antiviral activity against T20 resistant HIV1 NL4-3 harboring with V38E/N42S mutant infected in human MT2 cells or CEMx174 5.25 M7 cells assessed as reduction in p24 Gag protein production at 14000:1 compound to HP23 ratio measured at 4 days post-infection by ELISA. The format is functional, organism-based.

Data set [2] concerns Human immunodeficiency virus 1. Put plainly: Ratio of EC50 for antiviral activity against X4 tropic HIV-1 subtype-B 3B infected in human MT2 cells or CEMx174 5.25 M7 cells in absence of HP23 to EC50 for antiviral activity against X4 tropic HIV-1 subtype-B 3B infected in human MT2 cells or CEMx174 5.25 M7 cells at 6:1 compound to HP23 ratio. The format is functional, HIV-1 group M.

For data set [3], the system named is Human immunodeficiency virus 1. Put plainly: Antiviral activity against X4 tropic HIV-1 subtype-B 3B infected in human MT2 cells or CEMx174 5.25 M7 cells assessed as reduction in p24 Gag protein production at 12:1 compound to HP23 ratio measured at 4 days post-infection by ELISA. The format is functional, cell-based, HIV-1 group M. To be noted: Human immunodeficiency virus 1, 3B, 96 h.

In data set [4] the target is Envelope glycoprotein gp160 (Human immunodeficiency virus 1) (UniProt Q6QLK5). Nature of the data set: Ratio of EC50 for inhibition of HIV1 gp41-induced cell-cell fusion between viral envelope expressing human HL2/3 cells to CD4/CCR5 receptor expressing TZM-bl cells in absence of HP23 to EC50 for inhibition of HIV1 gp41-induced cell-cell fusion between viral envelope expressing human HL2/3 cells to CD4/CCR5 receptor expressing TZM-bl cells at 1:1 compound to HP23 ratio.

The test system of data set [5] is Human immunodeficiency virus 1. Nature of the data set: Ratio of EC50 for antiviral activity against T20 resistant HIV1 NL4-3 harboring with V38E/N42T mutant infected in human MT2 cells or CEMx174 5.25 M7 cells in absence of HP23 to EC50 for Antiviral activity against T20 resistant HIV1 NL4-3 harboring with V38E/N42T mutant infected in human MT2 cells or CEMx174 5.25 M7 cells at 300:1 compound to HP23 ratio. The format is functional.

For data set [6], the system named is Human immunodeficiency virus 1. Put plainly: Ratio of EC50 for antiviral activity against X4 tropic HIV-1 subtype-B 3B infected in human MT2 cells or CEMx174 5.25 M7 cells in absence of HP23 to EC50 for antiviral activity against X4 tropic HIV-1 subtype-B 3B infected in human MT2 cells or CEMx174 5.25 M7 cells at 24:1 compound to HP23 ratio. The format is functional, HIV-1 group M.

For data set [7], the system named is Human immunodeficiency virus 1. Put plainly: Antiviral activity against T20 resistant HIV1 NL4-3 harboring with V38E/N42T mutant infected in human MT2 cells or CEMx174 5.25 M7 cells assessed as reduction in p24 Gag protein production at 300:1 compound to HP23 ratio measured at 4 days post-infection by ELISA. The format is functional, organism-based.
The subject of data set [8] is Human immunodeficiency virus 1. Nature of the data set: Antiviral activity against R5 tropic HIV-1 subtype-B Bal infected in human MT2 cells or CEMx174 5.25 M7 cells assessed as reduction in p24 Gag protein production at 12:1 ratio of compound to HP23 measured at 4 days post-infection by ELISA. The format is functional, cell-based, HIV-1 group M. To be noted: Human immunodeficiency virus 1, Bal, 96 h.

Data set [9] relates to Human immunodeficiency virus 1. Put plainly: Ratio of EC50 for antiviral activity against T2635 resistant HIV1 LAI harboring Q66R mutant infected in human MT2 cells or CEMx174 5.25 M7 cells in absence of HP23 to antiviral activity against T2635 resistant HIV1 LAI harboring Q66R mutant infected in human MT2 cells or CEMx174 5.25 M7 cells at 12.5:1 ratio of compound to HP23. The format is functional, M:B_Lai.

For data set [10], the system named is Human immunodeficiency virus 1. Put plainly: Ratio of EC50 for antiviral activity against R5 tropic HIV-1 subtype-B Bal infected in human MT2 cells or CEMx174 5.25 M7 cells in absence of HP23 to EC50 for antiviral activity against R5 tropic HIV-1 subtype-B Bal infected in human MT2 cells or CEMx174 5.25 M7 cells at 24:1 compound to HP23 ratio. The format is functional, HIV-1 group M.

A short description of data set [11]: Metabolic stability in rat plasma assessed as parent compound remaining at 3 to 100 uM after 4 hrs by RP-HPLC analysis. The format is ADME, cell-free. Particulars: read-out: Stability.
Data set [12] in a line: Cytotoxicity against human TZM-bl cells assessed as reduction in viability after 2 days by XTT assay. The format is cell-based.
For data set [13], the target named is Envelope glycoprotein gp160 (Human immunodeficiency virus 1) (UniProt Q6QLK5). Put plainly: Binding affinity to HIV1 GP41 using GP41 NHR derived N36 peptide assessed as formation of secondary structure at 10 uM incubated for 30 mins by CD spectroscopy.
For data set [14] the target is unchanged. Nature of the data set: Binding affinity to HIV1 GP41 using GP41 NHR derived N36 peptide assessed as molecular weight at 150 uM incubated for 30 mins by sedimentation Velocity analysis.
For data set [15], the system named is Human immunodeficiency virus 1. Put plainly: Ratio of EC50 for antiviral activity against HIV1 NL4-3 infected in human MT2 cells or CEMx174 5.25 M7 cells in absence of hCS6ERE to EC50 for antiviral activity against HIV1 NL4-3 infected in human MT2 cells or CEMx174 5.25 M7 cells at 10:1 hCS6ERE to compound ratio. The format is functional.
Data set [16] deals with Human immunodeficiency virus 1. Put plainly: Ratio of EC50 for antiviral activity against T2635 resistant HIV1 LAI harboring Q66R mutant infected in human MT2 cells or CEMx174 5.25 M7 cells in absence of hCS6ERE to antiviral activity against T2635 resistant HIV1 LAI harboring Q66R mutant infected in human MT2 cells or CEMx174 5.25 M7 cells at 12.5:1 ratio of hCS6ERE to compound. The format is functional, M:B_Lai.

In data set [17] the test system is Human immunodeficiency virus 1. Nature of the data set: Ratio of EC50 for antiviral activity against T20 resistant HIV1 NL4-3 harboring with V38E/N42T mutant infected in human MT2 cells or CEMx174 5.25 M7 cells in absence of hCS6ERE to EC50 for Antiviral activity against T20 resistant HIV1 NL4-3 harboring with V38E/N42T mutant infected in human MT2 cells or CEMx174 5.25 M7 cells at 150:1 hCS6ERE to compound ratio. The format is functional.

Data set [18] has as its system Human immunodeficiency virus 1. Put plainly: Antiviral activity against T2635 resistant HIV1 LAI harboring Q66R mutant infected in human MT2 cells or CEMx174 5.25 M7 cells assessed as reduction in p24 Gag protein production at 50:1 ratio of hCS6ERE to compound measured at 4 days post infection by ELISA. The format is functional, organism-based, M:B_Lai.
Data set [19] deals with Human immunodeficiency virus 1. Put plainly: Antiviral activity against R5 tropic HIV-1 subtype-B Bal infected in human MT2 cells or CEMx174 5.25 M7 cells assessed as reduction in p24 Gag protein production at 3:1 ratio of hCS6ERE to compound measured at 4 days post-infection by ELISA. The format is functional, cell-based, HIV-1 group M. To be noted: Human immunodeficiency virus 1, Bal, 96 h.

Data set [20] concerns Human immunodeficiency virus 1. Nature of the data set: Ratio of EC50 for antiviral activity against T2635 resistant HIV1 LAI harboring Q66R mutant infected in human MT2 cells or CEMx174 5.25 M7 cells in absence of hCS6ERE to antiviral activity against T2635 resistant HIV1 LAI harboring Q66R mutant infected in human MT2 cells or CEMx174 5.25 M7 cells at 25:1 ratio of hCS6ERE to compound. The format is functional, M:B_Lai.

Activity calls are given as the source filed them. The calls are words filed in the database; no cut-off is given here. Starred links: 1 amine or outer side, 2 acyl side, 3 side chain; linkers in the order of their positions; H or OH if unused. Positions of bridges follow the written chain, without caps; N, C: chain ends. Non-standard residues stand in square brackets, D forms with d. Residues, ends and D or L forms follow the SMILES beside them. ξ: configuration not given here. mXylylene = c1cc(C[*:1])cc(C[*:2])c1; ξhCys = NC(CCS)C(=O)O

Chain of Envelope glycoprotein gp160 (Human immunodeficiency virus 1) (Q6QLK5 1-814): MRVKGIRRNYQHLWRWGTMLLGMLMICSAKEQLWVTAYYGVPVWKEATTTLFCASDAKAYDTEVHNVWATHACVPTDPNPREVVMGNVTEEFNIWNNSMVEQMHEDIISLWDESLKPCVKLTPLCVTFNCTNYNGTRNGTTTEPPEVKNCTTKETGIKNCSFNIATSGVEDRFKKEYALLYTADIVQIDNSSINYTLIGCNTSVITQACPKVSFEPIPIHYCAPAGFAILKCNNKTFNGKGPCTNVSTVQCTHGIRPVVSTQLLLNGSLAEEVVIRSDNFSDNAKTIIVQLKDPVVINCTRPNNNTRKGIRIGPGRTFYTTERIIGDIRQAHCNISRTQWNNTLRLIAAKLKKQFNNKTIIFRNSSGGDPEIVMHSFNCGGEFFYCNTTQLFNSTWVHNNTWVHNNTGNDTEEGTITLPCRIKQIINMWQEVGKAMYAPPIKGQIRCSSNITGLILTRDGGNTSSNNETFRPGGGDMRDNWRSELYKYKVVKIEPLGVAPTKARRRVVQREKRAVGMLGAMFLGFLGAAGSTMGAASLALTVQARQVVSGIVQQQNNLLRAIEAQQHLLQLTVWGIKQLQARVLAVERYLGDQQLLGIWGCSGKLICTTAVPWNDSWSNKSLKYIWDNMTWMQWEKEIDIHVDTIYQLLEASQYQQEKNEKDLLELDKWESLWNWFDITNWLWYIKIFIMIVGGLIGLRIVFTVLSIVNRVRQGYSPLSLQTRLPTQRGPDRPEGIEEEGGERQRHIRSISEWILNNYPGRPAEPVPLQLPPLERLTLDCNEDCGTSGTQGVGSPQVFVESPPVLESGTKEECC

As for `CC[C@H](C)[C@H](NC(C)=O)C(=O)N[C@@H](CCC(=O)O)C(=O)N[C@@H](CCC(=O)O)C(=O)N[C@@H](CC(C)C)C(=O)N[C@H](C(=O)NC1CCSCc2cccc(c2)CSCCC(C(=O)N[C@@H](CCC(N)=O)C(=O)N[C@@H](CCC(N)=O)C(=O)N[C@@H](CCCNC(=N)N)C(=O)N[C@@H](CCCCN)C(=O)N[C@@H](CC(N)=O)C(=O)N[C@@H](CCC(=O)O)C(=O)N[C@@H](CCC(=O)O)C(=O)N[C@@H](C)C(=O)N[C@@H](CC(C)C)C(=O)N[C@@H](CCCNC(=N)N)C(=O)N[C@@H](CCC(=O)O)C(=O)N[C@@H](CC(C)C)C(N)=O)NC(=O)[C@H](CCC(N)=O)NC(=O)[C@H](C)NC(=O)[C@H](C)NC1=O)[C@@H](C)CC` (stereo not given in full) (Ac-IEELI[ξhCys]AAQ[ξhCys]QQRKNEEALREL-NH2; linker 6-10 via mXylylene), the EC50 in data set [1] is 3170 nM; in [3], 11.1 nM; in data set [7], 433 nM; in [8] it was 6 nM. For the same molecule, the “Ratio EC50” value in data set [2] is 3.6; in data set [4] it was 2; in data set [5] it was 2.3; in data set [6], 1.6; in data set [9], 3.8; in data set [10] it was 2.6. Moreover, the remaining at 4 h, up to 100 µM in data set [11] stood at 100%. For the same molecule, the CC50 at 48 h in data set [12] is more than 800000 nM. In addition, in data set [13], the result was Active. For the same molecule, the Activity in [14] worked out at 19.2 kDa.

H-EMTWEEWEKKIEEYTKKIEEILK-OH: the “Ratio EC50” value in data set [15] was found to be 3.8; in [16], 2.7; in data set [17], 1.9; in [20], 3.2. The values for the EC50 in data set [18] and in [19] were 0.5 nM and 1.4 nM, respectively.
